Data on two molecules can be found in patent publication US20260365692A1, “COMPOSITIONS COMPRISING PROTEINS DISSOLVED IN FLUORINATED SOLVENTS, AND METHODS OF MAKING AND USING THE SAME” (priority 2022, published 2026).

A short description of data set [1]: Thermal stability of proteins in PFNA/PFOc (bioactivity after heating). The conditions noted are these: PFNA/PFOc mixture compared to aqueous solution, 30 min heating. Type of data set: physicochemical. On the procedure: FIGS. 16A-16C depict that the thermal stability of β-gal, GFP, and Trypsin is enhanced when the proteins are dissolved in a PFNA/PFOc mixture, compared to aqueous solutions of the proteins.
PFNA enhanced thermal stability in PFOc Differential scanning calorimetry (DSC) measurements were performed on 5 test proteins dissolved in either PBS (Aq.) or Perfluorooctane (PFOc). PFNA dispersant was added only for the PFOc conditions. DSC was performed at 2 °C/min ramp from 40 °C-100 °C. Melting temperature (Tm) was determined based on positive inflection of heat capacity curve, indicating protein unfolding (FIG. 15). Change in melting temperature (ATm (°C)) represented the difference in Tm between aqueous (Aq.) and PFOc data. Tm for GFP in PFOc could not be achieved at the maximum temperature of 100 °C for the DSC experiments. Each protein was dissolved in PBS (Aq.) or PFNA/PFOc mixture. Dissolved proteins were heated to 75 °C (β-gal), 90 °C (GFP) or 80 °C (Trypsin); treatment temperatures were determined based on aqueous melting temperatures for each protein. Positive controls were maintained at room temperature (25 °C). […] Bioactivity was evaluated then via fluorescence measurements for GFP, or using colorimetric substrate conversion assays (ONPG for β-gal, BAEE for Trypsin). […]

Data set [2] has as its system seven model proteins (Hb, GFP, BSA, β-Gal, IgG, TFN, URE). Description: Fluorochemical-mediated dispersion of test proteins into perfluorohexane. Type of data set: physicochemical. The conditions noted are these: PFNA-mediated, protein hydrodynamic radius 3.5 nm. The source says:
Only the rabbit IgG Fc fragment is shown.
For PFAS amphiphiles, the combination of polar head group and fluorophilic tail additionally leads to their preferential assembly at water-fluorous interfaces. Based on these unique properties, it was speculated that PFAS compounds may noncovalently associate with proteins to mediate their phase separation into fluorous media. To test this, a screening assay was developed to qualitatively investigate the binding affinity of a library of perfluorinated chemicals with seven model proteins, which include human hemoglobin (Hb), green fluorescent protein (GFP), bovine serum albumin (BSA), (β-Galactosidase (β-Gal), rabbit serum immunoglobulin (IgG), bovine apo-transferrin (TFN), and urease (URE). This group of model proteins captures an array of physicochemical properties ranging in molecular weight, solvent accessible surface area (SASA), isoelectric point (pI), and hydrodynamic radii. A corresponding perfluorinated small molecule test set was selected to contain a plurality of functional groups, linear perfluorocarbon chain lengths, and cyclic or aromatic geometries (FIGS. 1-7). Selection of these compounds was based on their potential to form noncovalent bonds (i.e., hydrogen or ionic) with the solvent exposed protein surfaces. […] These three linear PFAS chemicals are currently regulated by the US Environmental Protection Agency based on their reproductive, immune, and hepatic toxicity (References: 44-46). In sum, the structural and biochemical diversity represented in the protein and fluorochemical libraries was rationally selected to allow structure-function-performance relationships to be ascertained from binding studies.

The next data set deals with IgG. Description: Isothermal titration calorimetry, IgG. Type of data set: binding, rabbit. The source says:
To test this assertion, PFNA binding to three exemplary proteins, BSA, β-Gal and IgG, was studied via isothermal titration calorimetry (ITC) and surface plasmon resonance (SPR) techniques. […] SPR analysis yielded similar results, with sensorgrams (FIGS. 14J-14L) that diverged from a simple 1:1 ligand-protein model. […] Similar phenomenon may explain the negative signals of the SPR data and further support the ability of PFNA to modulate the conformational plasticity of adsorbed proteins.

The subject of another data set is A549 cells. As to the kind of experiment: Annexin V/propidium iodide co-staining of A549 cells. The conditions noted are these: PFNA. Type of data set: cell-based, human. On the procedure: FIGS. 20A-20D depicts annexin-V/PI co-staining of A549 cells treated without or with PFNA at 2 and 24 hours. FIGS. 20A-20C: Flow cytometry scatter plots. FIG. 20D: quadrant data comparing the population of unaffected cells (native), to cells displaying lipid translocation (Lip. Tran.) membrane permeabilization (Mem. Perm.), or both.
The ability of PFNA to modulate protein uptake may be explained by the reported anchorage of fluorinated amphiphiles within cell membranes to alter lipid bilayer fluidity and liquid-crystalline phase transitions. To test this assertion, and inform the interpretation of the protein uptake results, the annexin V (AV)/propidium iodide (PI) assay, commonly used to study apoptosis, was repurposed to explore membrane dynamics following PFNA exposure (FIGS. 20A-20D). Here, AV bound phosphatidylserine lipids exposed via inner-to-outer leaflet translocation, while PI positively labeled cells with permeabilized membranes. Comparing dye uptake at early (2 hour) and late (24 hour) PFNA exposure times allowed interpretation of lipid translocation (AV^+, PI^−), membrane permeabilization (AV^−, PI^+), both (AV^+, PI^+), or neither (AV^−, PI^−). […]

The target in a further data set is BSA (Bos taurus, UniProt P02769). As to the kind of experiment: 1H and 19F NMR of dispersant:BSA complex. Type of data set: binding, bovine. On the procedure: FIG. 43 depicts a superimposed ^1H NMR spectra of PD-7 (60 mM) and PD-7:BSA (1000:1 molar ratio) complex.
FIG. 44 depicts a superimposed ^1H NMR spectra of PD-2 (60 mM) and PD-2:BSA (1000:1 molar ratio) complex.
FIG. 45 depicts the change in ^1H (—COOH) and ^19F (—CF3) NMR chemical shift (Δδ) for PD-2 (grey) and PD-7 (black) following coordination with the BSA protein.
1H NMR and 19F NMR spectroscopy were employed to examine the biophysical interactions between BSA and PD-7 in the fluorous solvent. 60 mM PFNA solution in PFOc was aliquoted into lyophilized BSA stocks to achieve 1000:1 PFNA/BSA molar ratio then transferred to thin wall precision tube with Norell Coaxial inserts containing D2O as locking solvent. NMR spectra were collected on a Bruker NEO-400, equipped with a double resonance broadband observe iProbe (capable of automatic tuning and matching) for 1H and 19F nuclei observation. […] This is a 7-fold change in chemical shift relative to PD-7:BSA (FIG. 45).

The mark [3] stands for this setting: presence of BSA, 1000:1 molar ratio, in PFOc.

BSA, sequence (P02769 25-607): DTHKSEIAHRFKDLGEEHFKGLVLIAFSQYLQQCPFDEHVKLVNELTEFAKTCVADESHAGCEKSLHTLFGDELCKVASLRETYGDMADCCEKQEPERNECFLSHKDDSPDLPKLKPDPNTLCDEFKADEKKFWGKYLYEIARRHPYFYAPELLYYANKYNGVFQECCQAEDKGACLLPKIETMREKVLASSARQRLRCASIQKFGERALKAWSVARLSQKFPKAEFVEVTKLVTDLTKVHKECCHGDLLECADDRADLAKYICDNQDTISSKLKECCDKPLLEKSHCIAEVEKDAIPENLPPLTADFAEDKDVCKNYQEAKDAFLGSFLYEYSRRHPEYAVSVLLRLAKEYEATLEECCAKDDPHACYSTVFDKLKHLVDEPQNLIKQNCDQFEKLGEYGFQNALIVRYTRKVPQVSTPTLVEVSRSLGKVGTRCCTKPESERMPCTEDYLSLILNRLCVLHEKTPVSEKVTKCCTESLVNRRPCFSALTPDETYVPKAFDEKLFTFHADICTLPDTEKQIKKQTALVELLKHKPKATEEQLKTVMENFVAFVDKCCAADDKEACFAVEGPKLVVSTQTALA

On to “β-Gal: β-Galactosidase (β-Gal), dissolved in PBS/saline or dispersed in PFOc”, for which, in data set [1], the thermal stability entry is “enhanced”.
`O=C(O)C(F)(F)C(F)(F)C(F)(F)C(F)(F)C(F)(F)C(F)(F)C(F)(F)C(F)(F)F` [Compound 7, perfluoronanonic acid]: in data set [2], the protein dispersion was 60%. Further, in the data set on IgG, the “evolution of heat (ITC)” value was “no significant evolution of heat”. Moreover, in the data set with A549 cells (2 hours), the “lipid translocation (AV+, PI−)” value is given as “elevated”. In the data set with A549 cells (24 hours), the “lipid translocation and membrane permeability (AV+, PI+)” value is listed as “increased”. In addition, the “change in chemical shift relative to PD-7:BSA” value on BSA (1H —COOH, PD-2 vs PD-7) is listed as 7 fold. Also, on BSA (setting [3]), the “change in chemical shift of CF3 (Δδ, 19F NMR)” value is listed as 0.006 ppm and the “downfield shift of —COOH hydrogen (1H NMR)” value was 0.56 ppm.
